The target in the experiment is T1, MAO-B (Rattus norvegicus, UniProt P19643).
T1 construct: gene Maob
T1 sequence (P19643 2-520): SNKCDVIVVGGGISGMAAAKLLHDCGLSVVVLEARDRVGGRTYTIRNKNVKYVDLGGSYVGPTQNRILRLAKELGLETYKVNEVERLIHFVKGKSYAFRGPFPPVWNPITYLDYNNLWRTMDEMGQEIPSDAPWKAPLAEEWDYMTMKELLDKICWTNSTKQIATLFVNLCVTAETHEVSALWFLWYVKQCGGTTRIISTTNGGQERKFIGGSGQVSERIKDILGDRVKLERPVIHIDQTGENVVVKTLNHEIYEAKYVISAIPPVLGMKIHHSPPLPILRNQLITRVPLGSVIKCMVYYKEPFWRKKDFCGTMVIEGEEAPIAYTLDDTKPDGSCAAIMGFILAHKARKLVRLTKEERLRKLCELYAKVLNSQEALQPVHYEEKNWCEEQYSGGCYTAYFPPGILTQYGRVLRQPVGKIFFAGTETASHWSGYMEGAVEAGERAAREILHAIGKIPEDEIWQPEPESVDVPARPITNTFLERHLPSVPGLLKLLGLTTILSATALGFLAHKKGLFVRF
Nature of the experiment: peroxidase-linked spectrophotometric assay, crude rat liver mitochondria with MAO-A blocked by clorgyline. In kind it is biochemical.

For the molecule `C#CCN(C)Cc1ccccc1` [pargyline], 13.4 ± 0.16 nM corresponded to half-maximal inhibition (IC50).

The record behind these values is article PMC4986129, “A Peroxidase-linked Spectrophotometric Assay for the Detection of Monoamine Oxidase Inhibitors” (Iranian Journal of Pharmaceutical Research : IJPR, 2016).
